Six compounds from PMC7224301, “Methodology for the identification of small molecule inhibitors of the Fanconi Anaemia ubiquitin E3 ligase complex” (Scientific Reports, 2020) can be followed below.

Bounds are passed on as bounds.

Data set [1] relates to FANCD2 foci in SUM149 parental cells. Briefly: Nuclear FANCD2 foci formation (immunofluorescence), SUM149 parental. In kind it is cell-based, human. Particulars: for FANCD2 foci: 2 days exposure, DMSO = 3.80; for effect on FANCD2 foci formation: SUM149 parental cells (BRCA1-deficient), 1 µM. As for the experimental part: FANCD2 foci formation is often used as an indicator of FA core complex functionality[40],[43]. Therefore, we selected 11 compounds to test at 1 µM in 384-well format for their ability to reduce FANCD2 foci formation in SUM149 parental BRCA1-deficient cells. […] An inhibitor of the FA pathway could exploit this dependency of FANCD2 activity to synergise with PARP inhibitors.
Nuclear FANCD2 foci were measured in high throughput by quantitating DAPI stained cell nuclei of either SUM149 or SUM149 B1.S* cell lines using automated confocal imaging (CX7 LZR, ThermoFisher Scientific). […] FANCD2 foci were detected with immunofluorescence using rabbit anti-human FANCD2 (abcam, ab108928).

In data set [2] the test system is T1, FA core complex-mediated FANCD2 mono-ubiquitination.
T1 construct: made in house; host or cells: High-Five insect cells (FANC-B-L-100, FANCD2-FANCI); E. coli BL21 (DE3) (UBE2T); UBE1 and ubiquitin from Boston Biochem
The data set can be described thus: FANCD2 mono-ubiquitination proximity assay (AlphaScreen), inhibitor format. Particulars: at 0.3 µM. The class given is biochemical, human proteins; Xenopus laevis FANCD2 and FANCI. From the text: The inhibitor assay includes recombinant ubiquitin, ubiquitin activating enzyme, FANCT, FANC-B-L-100, FANC-C-E-F, FANCI, FANCD2 and dsDNA[41] (Fig. 2a). For the activator assay, the activity stimulating adaptor complex FANC-C-E-F is omitted to give a baseline FANCD2-ubiquitination signal which enables a greater dynamic range to detect activation of the E3 ligase sub complex FANCB-L-100 (Fig. 2b,c). […] The gel-based FANCD2 mono-ubiquitination assay that we published previously[26] was modified to give a chemi-luminescent readout using a proximity assay (Materials and methods) (Fig. 1b). The purified proteins in the mono-ubiquitination assays used for the high-throughput screen are biotinylated-ubiquitin (b-ubiquitin), His-UBE1, FANCT, Flag-FANCB, FANCL, FAAP100, MBP-FANCC, FANCE, FANCF, GST-XlFANCD2 and Flag-XlFANCI. The assay was calibrated for maximal signal to background and for an optimal dynamic range within which small molecule modulators could be detected in a 384-well plate format. […]
For high-throughput screening, FANCD2 mono-ubiquitination was measured with a proximity assay (AlphaScreen, Perkin Elmer). […] The 520–620 nm signal provides a read out of FANCD2 mono-ubiquitination. […] All protein concentrations in the assay were determined by titration of each component for optimal activity (Fig. 2). […]

Data set [3] concerns SUM149 cells. The data set can be described thus: Synthetic lethal cell assay (SRB cell viability), BRCA1-deficient cells. In kind it is cell-based, human. The settings on record: 10 µM, 72 h. An excerpt:
(§1) Therefore, we tested our preliminary inhibitors for the ability to kill BRCA1-deficient cells preferentially over isogenic BRCA1-proficient controls. To achieve this we exploited the triple negative breast cancer cell line SUM149[48] with a homozygous loss of function mutation in BRCA1 (c.2288delT, p.N723fsX13) and the daughter cell line, SUM149.B1.S* with one allele containing a secondary restoration of function mutation (an 80-bp BRCA1 deletion, c.[2288delT;2293del80])[49]. Twenty-five compounds were tested at 10 µM for preferential cytotoxicity in the BRCA1-deficient SUM149 (Fig. 5).
(§2) SUM149 parental cell line and SUM149 B1.S* cell lines[49] were seeded in a 96-well plate with 3000 cells per well. After 24 h, media was removed, and the cells were treated with 10 µM of each compound in triplicate in antibiotic free media and left for 72 h. Cell were fixed with 1% trichloroacetic acid and stained with sulphorhodamine B (SRB). Absorbance of wells were read at 550 nm.

Data set [4] deals with SUM149.B1.S* cells. The data set can be described thus: Synthetic lethal cell assay (SRB cell viability), BRCA1-proficient control cells. Particulars: SUM149.B1.S* (BRCA1 reversion), 10 µM, 72 h. In kind it is cell-based, human.
Text: as §1, §2

T1 sequence (Q9NW38 whole entry): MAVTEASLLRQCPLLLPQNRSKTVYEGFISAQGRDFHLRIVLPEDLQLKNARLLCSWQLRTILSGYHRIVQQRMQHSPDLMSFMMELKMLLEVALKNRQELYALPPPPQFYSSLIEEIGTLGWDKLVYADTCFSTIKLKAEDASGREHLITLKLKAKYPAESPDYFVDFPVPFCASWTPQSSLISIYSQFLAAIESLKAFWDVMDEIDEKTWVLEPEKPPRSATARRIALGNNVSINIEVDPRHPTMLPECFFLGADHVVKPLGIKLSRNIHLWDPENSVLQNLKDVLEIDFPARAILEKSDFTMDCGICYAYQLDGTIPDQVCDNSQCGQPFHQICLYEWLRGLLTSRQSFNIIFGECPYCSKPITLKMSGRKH
T1 sequence (Q8NB91 whole entry, further chain): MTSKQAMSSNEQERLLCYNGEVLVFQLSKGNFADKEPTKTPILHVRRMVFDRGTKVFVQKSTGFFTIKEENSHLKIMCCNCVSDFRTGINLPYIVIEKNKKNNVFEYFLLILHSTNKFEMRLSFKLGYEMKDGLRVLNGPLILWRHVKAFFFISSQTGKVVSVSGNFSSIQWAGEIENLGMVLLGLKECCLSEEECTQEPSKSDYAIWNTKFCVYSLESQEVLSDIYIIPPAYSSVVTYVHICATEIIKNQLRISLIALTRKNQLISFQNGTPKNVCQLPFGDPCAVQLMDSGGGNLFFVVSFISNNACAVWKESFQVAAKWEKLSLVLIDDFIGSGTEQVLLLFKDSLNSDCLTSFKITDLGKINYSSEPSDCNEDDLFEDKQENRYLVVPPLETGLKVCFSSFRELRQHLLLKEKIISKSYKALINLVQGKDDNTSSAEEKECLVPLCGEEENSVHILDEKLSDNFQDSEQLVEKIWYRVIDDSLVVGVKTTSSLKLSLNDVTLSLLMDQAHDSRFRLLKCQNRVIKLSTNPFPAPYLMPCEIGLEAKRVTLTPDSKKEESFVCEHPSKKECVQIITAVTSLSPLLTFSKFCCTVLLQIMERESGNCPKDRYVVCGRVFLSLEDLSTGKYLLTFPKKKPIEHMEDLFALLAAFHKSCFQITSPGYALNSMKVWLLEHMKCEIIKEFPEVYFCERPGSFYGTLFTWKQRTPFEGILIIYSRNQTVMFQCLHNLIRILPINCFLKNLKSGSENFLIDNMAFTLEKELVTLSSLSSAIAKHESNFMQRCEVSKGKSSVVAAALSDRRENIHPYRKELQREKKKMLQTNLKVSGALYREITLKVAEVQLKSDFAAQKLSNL
T1 sequence (Q0VG06 whole entry, further chain): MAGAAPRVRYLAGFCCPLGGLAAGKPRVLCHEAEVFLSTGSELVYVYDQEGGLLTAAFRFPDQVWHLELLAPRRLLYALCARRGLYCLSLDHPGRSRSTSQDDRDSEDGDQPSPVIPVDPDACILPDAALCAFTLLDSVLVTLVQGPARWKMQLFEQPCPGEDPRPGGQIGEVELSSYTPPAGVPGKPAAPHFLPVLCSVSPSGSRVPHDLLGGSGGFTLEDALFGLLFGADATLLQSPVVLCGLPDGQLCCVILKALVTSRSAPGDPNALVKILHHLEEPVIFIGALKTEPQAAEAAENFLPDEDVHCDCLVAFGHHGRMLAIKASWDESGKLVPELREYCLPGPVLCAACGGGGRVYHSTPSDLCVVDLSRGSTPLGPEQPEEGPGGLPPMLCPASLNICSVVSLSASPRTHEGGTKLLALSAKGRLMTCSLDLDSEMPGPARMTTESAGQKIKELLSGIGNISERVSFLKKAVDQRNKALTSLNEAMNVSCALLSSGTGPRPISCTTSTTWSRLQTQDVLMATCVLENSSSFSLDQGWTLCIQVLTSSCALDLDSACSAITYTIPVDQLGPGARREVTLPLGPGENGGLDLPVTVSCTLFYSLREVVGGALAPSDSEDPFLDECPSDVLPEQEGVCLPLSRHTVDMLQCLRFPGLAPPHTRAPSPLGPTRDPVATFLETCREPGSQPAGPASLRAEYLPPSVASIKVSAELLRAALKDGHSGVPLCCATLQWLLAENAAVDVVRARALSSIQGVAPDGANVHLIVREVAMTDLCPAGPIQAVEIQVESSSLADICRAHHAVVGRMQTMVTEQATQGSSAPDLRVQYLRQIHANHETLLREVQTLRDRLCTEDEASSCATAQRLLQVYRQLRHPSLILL
T1 sequence (Q00597 whole entry, further chain): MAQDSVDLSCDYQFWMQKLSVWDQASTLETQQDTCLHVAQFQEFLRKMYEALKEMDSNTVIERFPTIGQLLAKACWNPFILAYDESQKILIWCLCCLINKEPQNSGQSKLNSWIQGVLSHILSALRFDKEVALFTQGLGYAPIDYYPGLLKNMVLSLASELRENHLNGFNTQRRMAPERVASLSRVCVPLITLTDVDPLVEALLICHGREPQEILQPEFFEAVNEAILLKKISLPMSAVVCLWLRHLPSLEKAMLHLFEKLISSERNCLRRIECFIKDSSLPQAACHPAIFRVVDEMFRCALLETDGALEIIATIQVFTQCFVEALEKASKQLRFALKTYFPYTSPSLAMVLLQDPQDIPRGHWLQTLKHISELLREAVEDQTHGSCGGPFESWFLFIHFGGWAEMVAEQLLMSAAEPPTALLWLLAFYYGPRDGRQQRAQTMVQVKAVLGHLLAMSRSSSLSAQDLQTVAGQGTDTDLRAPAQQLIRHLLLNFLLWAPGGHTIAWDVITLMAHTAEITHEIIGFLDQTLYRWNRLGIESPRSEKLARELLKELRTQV
T1 sequence (Q9HB96 whole entry, further chain): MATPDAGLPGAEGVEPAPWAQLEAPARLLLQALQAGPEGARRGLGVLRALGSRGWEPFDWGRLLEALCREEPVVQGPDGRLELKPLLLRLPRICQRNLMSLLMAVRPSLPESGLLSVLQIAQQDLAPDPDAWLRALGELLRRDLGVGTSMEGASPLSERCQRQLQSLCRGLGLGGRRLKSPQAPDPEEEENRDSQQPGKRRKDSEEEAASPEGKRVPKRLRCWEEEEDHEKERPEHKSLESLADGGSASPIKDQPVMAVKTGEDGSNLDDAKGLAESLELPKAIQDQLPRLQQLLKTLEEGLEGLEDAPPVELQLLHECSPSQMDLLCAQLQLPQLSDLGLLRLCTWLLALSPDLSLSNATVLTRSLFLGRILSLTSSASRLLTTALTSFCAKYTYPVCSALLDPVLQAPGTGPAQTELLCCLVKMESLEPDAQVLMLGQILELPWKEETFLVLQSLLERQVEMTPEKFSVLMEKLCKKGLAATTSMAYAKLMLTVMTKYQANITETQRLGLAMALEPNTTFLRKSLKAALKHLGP
T1 sequence (Q9NPI8 whole entry, further chain): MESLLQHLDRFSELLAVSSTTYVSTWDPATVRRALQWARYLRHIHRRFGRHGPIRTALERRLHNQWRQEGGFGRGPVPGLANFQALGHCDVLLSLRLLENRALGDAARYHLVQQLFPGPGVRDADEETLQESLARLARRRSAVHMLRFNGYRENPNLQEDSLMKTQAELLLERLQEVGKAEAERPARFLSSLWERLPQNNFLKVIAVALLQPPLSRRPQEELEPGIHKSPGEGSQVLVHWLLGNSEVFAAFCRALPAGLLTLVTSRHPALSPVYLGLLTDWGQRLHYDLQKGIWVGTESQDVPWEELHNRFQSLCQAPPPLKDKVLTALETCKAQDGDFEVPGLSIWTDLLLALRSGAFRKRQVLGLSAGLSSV

With `CO[C@@]12[C@H](COC(N)=O)C3=C(C(=O)C(C)=C(N)C3=O)N1C[C@@H]1N[C@@H]12` [MMC, mitomycin C], the FANCD2 foci in data set [1] (SUM149 parental cells) is listed as 5.45. Consider `NS(=O)(=O)OC[C@H]1C[C@@H](Nc2ccnc3cc(-c4cccc(SC(F)(F)F)c4)nn23)[C@H](O)[C@@H]1O` [TAK243], for which the “inhibition of the FANCD2 mono-ubiquitination reaction” value in data set [2] is listed as greater than 50%. Also, in data set [1] (SUM149 parental cells), the “toxicity in the foci assay” value was “highly toxic” and the FANCD2 foci came out at 0.28. On to `NC(=O)c1cccc2cn(-c3ccc([C@@H]4CCCNC4)cc3)nc12` [niraparib], for which, in data set [1], the “effect on FANCD2 foci formation” value is “increased FANCD2 foci formation”. Take `O=C(c1cc(Cc2n[nH]c(=O)c3ccccc23)ccc1F)N1CCN(C(=O)C2CC2)CC1` [olaparib]: the survival is reported as 33.3% in data set [3] and 78.1% in data set [4]. Besides, the “effect on FANCD2 foci formation” value in data set [1] is “increased FANCD2 foci formation”. `CNCc1ccc(-c2[nH]c3cc(F)cc4c3c2CCNC4=O)cc1` [rucaparib]: the “effect on FANCD2 foci formation” value in data set [1] was “increased FANCD2 foci formation”. With `C[C@]1(c2nc3c(C(N)=O)cccc3[nH]2)CCCN1` [veliparib], the “effect on FANCD2 foci formation” value in data set [1] was “increased FANCD2 foci formation”.
